Measured values taken from the supplement of paper PMC11208160.

experiment: recombinant barcode read abundance after kanamycin selection (control-corrected) (log10(CPM+1)); higher = more efficient recombination; sequences stand for … in AGTGCAGAGAAAATCGGCCAGTTTTCTCTGCCTGCAGTCCGCATGCCGT…AGATTTATGCAGCGGACTGCCTTTCTCCCAAAGTGATAAACCGGACAGTATCATGGACCGGTTTTCCCGGTAATCCGTATTTGCAAGGTTGGTTTCACT; site = the 11-nt target
Outline: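 For this pooled screen, each oligo contained a promoter, a target, a barcode and the J23119-driven first 104 bases of the bridge RNA. Gibson cloning placed it into a vector supplying the remaining 73 bp and a T7-inducible recombinase, and the pool was co-electroporated into E. coli with a donor plasmid. Recombination efficiency is derived from barcode counts per million at recombinant junctions after averaging and control correction, and is expressed on a log scale as log10(CPM+1), with selection on chloramphenicol/ampicillin/kanamycin plus 0.1 mM IPTG against a chloramphenicol/ampicillin LB agar control.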
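Also: IS621 recombinase and bridge RNA in Escherichia coli cells.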

| Sequence | recombinant barcode read abundance (log10) |
| --- | --- |
| TAGGCTCCTTGGGTTCTAACCTGTTGCTT (site TAGGCTCCTAA) | 0.277 |
| GCGCGCCCTTGGGTTCTAACCTGTTGCTG (site GCGCGCCCTCC) | 0.0616 |
| ACGGGTGCTTGGGTTCTAACCTGTTGCCT (site ACGGTTGCTAG) | 0.103 |
| GTCGTAGCTTGGGTTCTAACCTGTTGCCT (site GCCGTAGCTAG) | 0.0842 |
| CTGCATACTTGGGTTCTAACCTGTTGCCT (site CAGCATACTAG) | 0.17 |
| TTGGCCTCTTGGGTTCTAACCTGTTGCCT (site TTGGCCTCTAG) | 1.27 |
| TTCAGCCCTTGGGTTCTAACCTGTTGCCT (site TTCAGCCCTAG) | 0.679 |
| GAGCGCTCTTGGGTTCTAACCTGTTGCTA (site GAGCGCTCTCA) | 0.223 |
| AACATTGCTTGGGTTCTAACCTGTTGCCT (site AACATTGCTAG) | 0.979 |
| CACTATCCTTGGGTTCTAACCTGTTGCCT (site CAATATCCTAG) | 0.0585 |
| TGCGTCCCTTGGGTTCTAACCTGTTGCCT (site TGGGTCCCTAG) | 0.117 |
| TGTCAACCTTGGGTTCTAACCTGTTGCCT (site TGTCAACCTAG) | 0.998 |
| ACCTGCCCTTGGGTTCTAACCTGTTGCCT (site ACCTGGCCTAG) | 0.0614 |
| CACTATCCTTGGGTTCTAACCTGTTGCCT (site CAGTATCCTAG) | 0.157 |
| GGTAAAGCTTGGGTTCTAACCTGTTGCCT (site GGTATAGCTAG) | 0.216 |
| AGTGCGTCTTGGGTTCTAACCTGTTGCCT (site GGTGCGTCTAG) | 0.241 |
| ACAATGTCTTGGGTTCTAACCTGTTGCGG (site ACAGTGTCTCC) | 0.192 |
| TATTGGACTTGGGTTCTAACCTGTTGCAT (site TATTGGACTAT) | 0.421 |
| CTCCGCCCTTGGGTTCTAACCTGTTGCTT (site CTCCGCCCTAA) | 0.578 |
| GAGAGGTCTTGGGTTCTAACCTGTTGCCT (site GAGAGGTCTAC) | 0.0681 |
| TCGTCACCTTGGGTTCTAACCTGTTGCAT (site TCGTCACCTAT) | 0.0694 |
| GGGCATCCTTGGGTTCTAACCTGTTGCTT (site GTGCACCCTAA) | 0.637 |

| Sequence | recombinant barcode read abundance (log10) |
| --- | --- |
| CTATTCACTTGGGTTCTAACCTGTTGCCT (site CTATTCACTAG) | 1.34 |
| CTAAGAACTTGGGTTCTAACCTGTTGCGT (site CTAAGAACTAA) | 0.0418 |
| TCCGCGACTTGGGTTCTAACCTGTTGCCT (site TCTGCGACTAG) | 0.17 |
| CTGGAGTCTTGGGTTCTAACCTGTTGCCT (site CTGGGGTCTAG) | 0.412 |
| TAGTTAGCTTGGGTTCTAACCTGTTGCCC (site TAGTTAGCTAG) | 0.0394 |
| GTCACAGCTTGGGTTCTAACCTGTTGCCT (site GTCAAAGCTTG) | 0.0492 |
| GTGCCCGCTTGGGTTCTAACCTGTTGCGG (site GTGCCCTCTCG) | 0.205 |
| GGACGATCTTGGGTTCTAACCTGTTGCCT (site GGACGATCTAG) | 1.54 |
| TGGGTCCCTTGGGTTCTAACCTGTTGCTT (site TGGGTCCCTAA) | 2.1 |
| CATCCTACTTGGGTTCTAACCTGTTGCCT (site CATCCTACTAG) | 0.259 |
| TAGTTGACTTGGGTTCTAACCTGTTGCCA (site TAGTTCACTTG) | 0.00742 |
| AAGGCGCCTTGGGTTCTAACCTGTTGCCT (site AAGGCGCCTAG) | 0.806 |
| ACAAAGACTTGGGTTCTAACCTGTTGCCT (site ACAAGGGCTAG) | 0.0359 |
| CCATATGCTTGGGTTCTAACCTGTTGCCT (site CCATATGCTAG) | 0.148 |
| TCTACTTCTTGGGTTCTAACCTGTTGCCT (site TCTACCTCTAG) | 0.123 |
| TAGCCTTCTTGGGTTCTAACCTGTTGCTA (site TAGCCTTCTTA) | 0.129 |
| CCAGAGTCTTGGGTTCTAACCTGTTGCCG (site CCAGAGTCTTG) | 0.152 |
| GCATGGACTTGGGTTCTAACCTGTTGCAG (site GCATGGACTCT) | 2.24 |
| TTAGTCGCTTGGGTTCTAACCTGTTGCCT (site TTAGTAGCTAG) | 0.191 |
| CGTACCTCTTGGGTTCTAACCTGTTGCTC (site CGTACCTCTCA) | 0.0772 |
| GAGCTACCTTGGGTTCTAACCTGTTGCCT (site GAGCTACCTCG) | 0.549 |
| TCTTGTCCTTGGGTTCTAACCTGTTGCGG (site TCTTGTCCTTC) | 0.0135 |

| Sequence | recombinant barcode read abundance (log10) |
| --- | --- |
| TAGAACACTTGGGTTCTAACCTGTTGCTT (site TAGAACACTGA) | 0.153 |
| CTGAGGACTTGGGTTCTAACCTGTTGCCT (site GTGAGGACTAG) | 0.0454 |
| GACTTGACTTGGGTTCTAACCTGTTGCCT (site GACTTGGCTAG) | 0.171 |
| GCTAGCCCTTGGGTTCTAACCTGTTGCGG (site GCTAGCCCTCC) | 1.83 |
| TACCAGTCTTGGGTTCTAACCTGTTGCTT (site TACCTGTCTAA) | 0.111 |
| TCCGAAGCTTGGGTTCTAACCTGTTGCCT (site GACGAAGCTAG) | 0.444 |
| CACGATCCTTGGGTTCTAACCTGTTGCTT (site AGTCGGACTGT) | 0.11 |
| CTACAGACTTGGGTTCTAACCTGTTGCGG (site CTACAGACTAC) | 0.088 |
| TATTAGACTTGGGTTCTAACCTGTTGCCT (site AATTAGACTAG) | 0.158 |
| CTAGGAGCTTGGGTTCTAACCTGTTGCTC (site CTAGGAGCTGA) | 0.885 |
| ATAATACCTTGGGTTCTAACCTGTTGCCT (site ATAATACCTAG) | 1.4 |
| TCTTATTCTTGGGTTCTAACCTGTTGCGT (site TCTCATTCTAC) | 0.0847 |
| GGTTGTCCTTGGGTTCTAACCTGTTGCCT (site GGTGGTCCTAG) | 0.253 |
| TCGATCCCTTGGGTTCTAACCTGTTGCGT (site CTTTGAACTTA) | 0.315 |
| CGCCACACTTGGGTTCTAACCTGTTGCCT (site CGGCACACTAG) | 0.689 |
| GCAGGGTCTTGGGTTCTAACCTGTTGCTT (site GCAGGGTCTAA) | 2.4 |
| CTAAGCGCTTGGGTTCTAACCTGTTGCCA (site CTAAGCGCTTG) | 0.647 |
| TGGTACGCTTGGGTTCTAACCTGTTGCCT (site TGGTTCGCTAG) | 0.24 |
| GGTTCTCCTTGGGTTCTAACCTGTTGCCT (site TGTTCTCCTAG) | 0.0347 |
| ATTCGGGCTTGGGTTCTAACCTGTTGCGT (site ATTCGAGCTGC) | 0.0603 |
| GTCCAGCCTTGGGTTCTAACCTGTTGCAT (site GTCCAGCCTAT) | 1.98 |
| TTGGCGACTTGGGTTCTAACCTGTTGCCA (site TTGGCGACTTG) | 0.118 |

| Sequence | recombinant barcode read abundance (log10) |
| --- | --- |
| CTGGAACCTTGGGTTCTAACCTGTTGCGG (site CTGGAACCTCC) | 1.25 |
| CTACGTTCTTGGGTTCTAACCTGTTGCAC (site CTACGATCTGT) | 0.0857 |
| TCCCATCCTTGGGTTCTAACCTGTTGCTT (site TCCCAGCCTCA) | 0.524 |
| TGCAATACTTGGGTTCTAACCTGTTGCAT (site ACAGTATCTCA) | 0.054 |
| TCGCGGACTTGGGTTCTAACCTGTTGCCT (site TCCCGGACTAG) | 0.243 |
| GCCGAGTCTTGGGTTCTAACCTGTTGCTG (site GCCGAGTCTGA) | 0 |
| GGATACACTTGGGTTCTAACCTGTTGCCA (site GGATTCACTTG) | 0.274 |
| CATAGGCCTTGGGTTCTAACCTGTTGCAT (site CATAGCCCTAT) | 0.371 |
| CTGAGAGCTTGGGTTCTAACCTGTTGCCT (site CCGAGAGCTAG) | 0.058 |
| CACTTCCCTTGGGTTCTAACCTGTTGCGT (site CACTTCCCTAG) | 0.402 |
| CCTAAGTCTTGGGTTCTAACCTGTTGCCA (site GACTTAACTAA) | 0.133 |
| TAATTTGCTTGGGTTCTAACCTGTTGCCT (site CGCGAGTCTCA) | 0.215 |
| CGTATCTCTTGGGTTCTAACCTGTTGCCT (site CCAATCTCTAG) | 0.063 |
| CGCTGCCCTTGGGTTCTAACCTGTTGCTT (site CGCTGGCCTAA) | 0.0609 |
| GTAAAACCTTGGGTTCTAACCTGTTGCCT (site TTAAAACCTAG) | 0.266 |
| GGTTGTCCTTGGGTTCTAACCTGTTGCCT (site GGTTGTCCTAG) | 0.328 |
| ACGTGGACTTGGGTTCTAACCTGTTGCTA (site GACAATGCTAT) | 0.181 |
| AGGCGCCCTTGGGTTCTAACCTGTTGCAT (site AGGCGCCCTTT) | 0.244 |
| GATAACTCTTGGGTTCTAACCTGTTGCCT (site TATAACTCTAG) | 0.315 |
| CGAATCACTTGGGTTCTAACCTGTTGCCT (site CGAATCACTAG) | 0.686 |
